Data taken from ChEMBL document CHEMBL6127057, “Design and synthesis of Thieno[3, 2-b]pyridinone derivatives exhibiting potent activities against Mycobacterium tuberculosis in vivo by targeting Enoyl-ACP reductase” (Eur J Med Chem, 2024).
Values after ≈ are worked out from the molar mass of the structure shown.

What was measured:
Assay type in all cases: functional
[1] = test system: Mycobacterium tuberculosis; assay: Antimycobacterial activity against compound resistant Mycobacterium tuberculosis 8-8B harboring InhA CTG to GTG (L197V) phenotype
[2] = test system: Mycobacterium tuberculosis; assay: Selectivity ratio of MIC for compound resistant Mycobacterium tuberculosis 16-1B harboring InhA TCG to TTG (S186L) phenotype to MIC for wild-type Mycobacterium tuberculosis H37Rv
[3] = test system: Mycobacterium tuberculosis; assay: Antimycobacterial activity against compound resistant Mycobacterium tuberculosis 16-4B harboring InhA GCC to GAC (A211D) phenotype
[4] = test system: Mycobacterium tuberculosis; assay: Selectivity ratio of MIC for compound resistant Mycobacterium tuberculosis 16-4B harboring InhA GCC to GAC (A211D) phenotype to MIC for wild-type Mycobacterium tuberculosis H37Rv
[5] = test system: Mycobacterium tuberculosis; assay: Antimycobacterial activity against compound resistant Mycobacterium tuberculosis 16-1B harboring InhA TCG to TTG (S186L)
[6] = test system: Mycobacterium tuberculosis; assay: Selectivity ratio of MIC for compound resistant Mycobacterium tuberculosis 8-8B harboring InhA CTG to GTG (L197V) phenotype to MIC for wild-type Mycobacterium tuberculosis H37Rv
[7] = test system: Mycobacterium tuberculosis; assay: Selectivity ratio of MIC for compound resistant Mycobacterium tuberculosis 16-6B harboring InhA ATC to AGC (150S) phenotype to MIC for wild-type Mycobacterium tuberculosis H37Rv
[8] = test system: Mycobacterium tuberculosis; assay: Antimycobacterial activity against compound resistant Mycobacterium tuberculosis 16-6B harboring InhA ATC to AGC (150S)

SMILES	MIC [1] [µg/mL]	Selectivity ratio [2]	MIC [3] [µg/mL]	Selectivity ratio [4]	MIC [5] [µg/mL]	Selectivity ratio [6]	Selectivity ratio [7]	MIC [8] [µg/mL]
Cc1cccc(-c2c(O)c3scc(Br)c3[nH]c2=O)c1	32 (≈ 95.2 µM)	<=16	>128	<=16	16 (≈ 47.6 µM)	<=16	<=16	16 (≈ 47.6 µM)
NNC(=O)c1ccncc1 [ISONIAZID]	0.063 (≈ 0.459 µM)		0.063 (≈ 0.459 µM)		0.063 (≈ 0.459 µM)			0.063 (≈ 0.459 µM)
CO[C@H]1/C=C/O[C@@]2(C)Oc3c(C)c(O)c4c(O)c(c(/C=N/N5CCN(C)CC5)c(O)c4c3C2=O)NC(=O)/C(C)=C\C=C\[C@H](C)[C@H](O)[C@@H](C)[C@@H](O)[C@@H](C)[C@H](OC(C)=O)[C@@H]1C [RIFAMPIN]	0.063 (≈ 0.0766 µM)		64 (≈ 77.8 µM)		0.063 (≈ 0.0766 µM)			0.063 (≈ 0.0766 µM)
